The first assay relates to GDF8 signaling (p-SMAD-3 (Ser423/425)). The assay can be described thus: AlphaScreen SureFire SMAD3 (p-Ser423/425) assay, GDF8-stimulated cells (GDF pSMAD). The assay is classed as cell-based. The following applies: Mus musculus, MPC-11, GDF8-stimulated pSMAD3, MPC11; tested as the salt form given; read-out: GDF pSMAD (MPC11) (μM), inhibition of GDF8 signaling. In general terms: Alpha assays give light when donor and acceptor beads are brought close together.
With `Nc1ncnc2ccc(-c3cccnc3-c3cccc(O)c3)cc12` [compound 977, 3-(3-(4-aminoquinazolin-6-yl)pyridin-2-yl)phenol], the IC50 was 1 µM.
Consider `Nc1ncnc2ccc(-c3cccnc3-c3ccc(F)c(Cl)c3F)cc12` [compound 978, 6-(2-(3-chloro-2,4-difluorophenyl)pyridin-3-yl)quinazolin-4-amine], for which the IC50 came out at 1.87 µM.
Same read-out and setting: in the case of `CN(C)C(=O)Oc1cccc(-c2ncccc2-c2ccc3ncnc(N)c3c2)c1` [compound 979, 3-(3-(4-aminoquinazolin-6-yl)pyridin-2-yl)phenyl dimethylcarbamate] it was 14 µM.
Regarding `Cc1cc2ncnc(N)c2cc1-c1cccnc1-c1ccc(F)c(Cl)c1` [compound 980, 6-(2-(3-chloro-4-fluorophenyl)pyridin-3-yl)-7-methylquinazolin-4-amine], the IC50 is 3.73 µM.
The same measure, in the same setting: in the case of `Cc1cc2ncnc(N)c2cc1-c1cccnc1-c1cc(Cl)ccc1F` [compound 981, 6-(2-(5-chloro-2-fluorophenyl)pyridin-3-yl)-7-methylquinazolin-4-amine] it was 9.34 µM.
For `Nc1ncnc2ccc(-c3cccnc3-c3cccc(OC(F)F)c3)cc12` [compound 982, 6-(2-(3-(difluoromethoxy)phenyl)pyridin-3-yl)quinazolin-4-amine], the IC50 came out at 0.0411 µM.
For the compound `Cc1ccc(C)c(-c2ncccc2-c2ccc3ncnc(N)c3c2)c1` [compound 983, 6-(2-(2,5-dimethylphenyl)pyridin-3-yl)quinazolin-4-amine], the IC50 amounted to 1.46 µM.
Consider `Cc1ccc(Cl)c(-c2ncccc2-c2ccc3ncnc(N)c3c2)c1` [compound 984, 6-(2-(2-chloro-5-methylphenyl)pyridin-3-yl)quinazolin-4-amine], for which the IC50 amounted to 0.45 µM.
The same measure, in the same setting: in the case of `Cc1cc(-c2cccnc2-c2ccc(F)c(Cl)c2)cc2c(N)ncnc12` [compound 985, 6-(2-(3-chloro-4-fluorophenyl)pyridin-3-yl)-8-methylquinazolin-4-amine] it was 2.18 µM; in that of `Cc1cc(-c2ncccc2-c2cc(C)c3ncnc(N)c3c2)ccc1F` [compound 986, 6-(2-(4-fluoro-3-methylphenyl)pyridin-3-yl)-8-methylquinazolin-4-amine], 0.956 µM.
On the same count and under the same terms, in the case of `Cc1cc(F)c(F)cc1-c1ncccc1-c1ccc2ncnc(N)c2c1` [compound 987, 6-(2-(4,5-difluoro-2-methylphenyl)pyridin-3-yl)quinazolin-4-amine] it was 8 µM; in that of `Cc1cc(C)c(-c2ncccc2-c2ccc3ncnc(N)c3c2)cc1F` [compound 988, 6-(2-(5-fluoro-2,4-dimethylphenyl)pyridin-3-yl)quinazolin-4-amine], 1.06 µM; in that of `Cc1cc(F)c(Cl)cc1-c1ncccc1-c1ccc2ncnc(N)c2c1` [compound 989, 6-(2-(5-chloro-4-fluoro-2-methylphenyl)pyridin-3-yl)quinazolin-4-amine], 0.692 µM.
Consider `Cc1cnc(-c2ccc(F)c(Cl)c2)c(-c2ccc3ncnc(N)c3c2)c1` [compound 990, 6-(2-(3-chloro-4-fluorophenyl)-5-methylpyridin-3-yl)quinazolin-4-amine], for which the IC50 was found to be 0.285 µM.
The same measure, in the same setting: in the case of `Cc1cnc(-c2cccc(O)c2)c(-c2ccc3ncnc(N)c3c2)c1` [compound 991, 3-(3-(4-aminoquinazolin-6-yl)-5-methylpyridin-2-yl)phenol] it was 20.2 µM; in that of `COc1cnc(-c2ccc(F)c(Cl)c2)c(-c2ccc3ncnc(N)c3c2)c1` [compound 992, 6-(2-(3-chloro-4-fluorophenyl)-5-methoxypyridin-3-yl)quinazolin-4-amine], 1.86 µM; in that of `COc1cnc(-c2cc(Cl)ccc2F)c(-c2ccc3ncnc(N)c3c2)c1` [compound 993, 6-(2-(5-chloro-2-fluorophenyl)-5-methoxypyridin-3-yl)quinazolin-4-amine], 0.486 µM.
Same read-out and setting: in the case of `COc1cnc(-c2cccc(O)c2)c(-c2ccc3ncnc(N)c3c2)c1` [compound 994, 3-(3-(4-aminoquinazolin-6-yl)-5-methoxypyridin-2-yl)phenol] it was 3.21 µM; in that of `Nc1ncnc2ccc(-c3cc(F)cnc3-c3ccc(F)c(Cl)c3)cc12` [compound 998, 6-(2-(3-chloro-4-fluorophenyl)-5-fluoropyridin-3-yl)quinazolin-4-amine], 2.44 µM; in that of `Nc1ncnc2ccc(-c3cc(F)cnc3-c3cc(Cl)ccc3F)cc12` [compound 999, 6-(2-(5-chloro-2-fluorophenyl)-5-fluoropyridin-3-yl)quinazolin-4-amine], 1.2 µM.
Turning to `Nc1ncnc2ccc(-c3cc(F)cnc3-c3cccc(O)c3)cc12` [compound 1000, 3-(3-(4-aminoquinazolin-6-yl)-5-fluoropyridin-2-yl)phenol], the IC50 was determined as 6.5 µM.
On the same count and under the same terms, in the case of `Cc1cc(-c2ncccc2-c2ccc3ncnc(N)c3c2)c(C)cc1F` [compound 1002, 6-(2-(4-fluoro-2,5-dimethylphenyl)pyridin-3-yl)quinazolin-4-amine] it was 1.42 µM; in that of `Nc1ncnc2ccc(-c3cccnc3-c3ccccc3F)cc12` [compound 1003, 6-(2-(2-fluorophenyl)pyridin-3-yl)quinazolin-4-amine], 7.27 µM; in that of `Cc1ccc(F)c(-c2ncccc2-c2ccc3ncnc(N)c3c2)c1` [compound 1004, 6-(2-(2-fluoro-5-methylphenyl)pyridin-3-yl)quinazolin-4-amine], 0.203 µM.
With `Cc1ccc(O)cc1-c1ncccc1-c1ccc2ncnc(N)c2c1` [compound 1005, 3-(3-(4-aminoquinazolin-6-yl)pyridin-2-yl)-4-methylphenol], the IC50 was 5.45 µM.
As for `Nc1ncnc2ccc(-c3cccnc3-c3cc(O)ccc3F)cc12` [compound 1006, 3-(3-(4-aminoquinazolin-6-yl)pyridin-2-yl)-4-fluorophenol], the IC50 is 0.735 µM.
Same read-out and setting: in the case of `CCc1cccc(-c2ncccc2-c2ccc3ncnc(N)c3c2)c1` [compound 1007, 6-(2-(3-ethylphenyl)pyridin-3-yl)quinazolin-4-amine] it was 0.223 µM.
Still for that read-out and setting: in the case of `COc1cc(-c2ncccc2-c2ccc3ncnc(N)c3c2)c(Cl)cc1F` [compound 1008, 6-(2-(2-chloro-4-fluoro-5-methoxyphenyl)pyridin-3-yl)quinazolin-4-amine] it was 5.81 µM; in that of `Nc1ncnc2ccc(-c3cccnc3-c3cc(OC(F)(F)F)ccc3Cl)cc12` [compound 1009, 6-(2-(2-chloro-5-(trifluoromethoxy)phenyl)pyridin-3-yl)quinazolin-4-amine], 3.29 µM; in that of `Nc1ncnc2ccc(-c3cccnc3-c3ccc(F)c(OC(F)F)c3)cc12` [compound 1010, 6-(2-(3-(difluoromethoxy)-4-fluorophenyl)pyridin-3-yl)quinazolin-4-amine], 0.562 µM.
Still for that read-out and setting: in the case of `COc1ccc(Cl)c(-c2ncccc2-c2ccc3ncnc(N)c3c2)c1` [compound 1011, 6-(2-(2-chloro-5-methoxyphenyl)pyridin-3-yl)quinazolin-4-amine] it was 3.33 µM; in that of `Cc1cc(-c2ncccc2-c2ccc3ncnc(N)c3c2)c(Cl)cc1F` [compound 1012, 6-(2-(2-chloro-4-fluoro-5-methylphenyl)pyridin-3-yl)quinazolin-4-amine], 0.728 µM; in that of `Nc1ncnc2ccc(-c3cccnc3-c3cc(O)c(F)cc3F)cc12` [compound 1013, 5-(3-(4-aminoquinazolin-6-yl)pyridin-2-yl)-2,4-difluorophenol], 1.05 µM.
For `Nc1ncnc2ccc(-c3cccnc3-c3cc(OC(F)(F)F)ccc3F)cc12` [compound 1014, 6-(2-(2-fluoro-5-(trifluoromethoxy)phenyl)pyridin-3-yl)quinazolin-4-amine], the IC50 came out at 0.416 µM.

Staying with this assay, now noted: Mus musculus, MPC-11, MPC11; GDF8-stimulated; p-SMAD3 AlphaScreen; read-out: GDF pSMAD (MPC11) (inhibition of GDF8 signaling).
In the case of `Clc1cccc(-c2ncccc2-c2ccc3ncnn3n2)c1` [compound 954, 6-(2-(3-Chlorophenyl)pyridin-3-yl)-[1,2,4]triazolo[1,5-b]pyridazine], the IC50 turned out to be 0.438 µM.
For `Fc1ccc(Cl)cc1-c1ncccc1-c1ccc2ncnn2n1` [compound 955, 6-(2-(5-Chloro-2-fluorophenyl)pyridin-3-yl)-[1,2,4]triazolo[1,5-b]pyridazine], the IC50 is 0.29 µM.
For the compound `Fc1cc(F)c(-c2ncccc2-c2ccc3ncnn3n2)cc1Cl` [compound 956, 6-(2-(5-Chloro-2,4-difluorophenyl)pyridin-3-yl)-[l 1,2,4]triazolo[1,5-b]pyridazine], the IC50 worked out at 0.421 µM.
Same read-out and setting: in the case of `O=c1[nH]cnc2ccc(-c3cccnc3-c3ccc(F)c(Cl)c3)nc12` [compound 960, 6-(2-(3-Chloro-4-fluorophenyl)pyridin-3-yl)pyrido[3,2-d]pyrimidin-4(3H)-one] it was 1.69 µM; in that of `FC(F)Oc1cccc(-c2ncccc2-c2ccc3ncsc3c2)c1` [compound 961, 6-(2-(3-(Difluoromethoxy)phenyl)pyridin-3-yl)benzo[d]thiazole], 0.129 µM.
The same measure, in the same setting: in the case of `FC(F)Oc1cccc(-c2ncccc2-c2ccc3nccnc3c2)c1` [compound 962, 6-(2-(3-(Difluoromethoxy)phenyl)pyridin-3-yl)quinoxaline] it was 0.622 µM; in that of `Cn1cnc2ccc(-c3cccnc3-c3cccc(OC(F)F)c3)cc21` [compound 963, 6-(2-(3-(Difluoromethoxy)phenyl)pyridin-3-yl)-1-methyl-1H-benzo[d]imidazole], 0.175 µM; in that of `Nc1ncnc2ccc(-c3cccnc3-c3ccc(F)c(Cl)c3)nc12` [compound 964, 6-(2-(3-Chloro-4-fluorophenyl)pyridin-3-yl)pyrido[3,2-d]pyrimidin-4-amine], 0.232 µM.
Take `Fc1ccc(-c2ncccc2-c2ccn3nccc3n2)c(F)c1Cl` [compound 965, 5-(2-(3-Chloro-2,4-difluorophenyl)pyridin-3-yl)pyrazolo[1,5-a]pyrimidine]: the IC50 was found to be 5.19 µM.
Still for that read-out and setting: in the case of `Cn1cnc2ccc(-c3cccnc3-c3ccc(F)c(Cl)c3F)cc21` [compound 967, 6-(2-(3-Chloro-2,4-difluorophenyl)pyridin-3-yl)-1-methyl-1H-benzo[d]imidazole] it was 1.44 µM.

Source of the values: US10858335B2 (Rigel Pharmaceuticals, Inc., priority 2014, dated 2020).
